Reference: US10913727B2, “Modulators of the integrated stress pathway” (Calico Life Sciences LLC, priority 2016, dated 2021)

Test system: HEK293T cells carrying the ATF4 luciferase reporter
Experiment: ATF4-Luc assay, in vitro model of Vanishing Cell White Matter Disease (VWMD)
Format: cell-based
Details: Homo sapiens, HEK-293T, 1 μg/mL tunicamycin, 7 hours, One Glo luminescence
In short: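 Stable HEK293T line with human ATF4 5′-UTR–firefly luciferase reporter treated with 1 μg/mL tunicamycin plus 200 nM compound for 7 h. Luminescence read; EC50 derived.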

Structure (SMILES)	EC50 [nM]
CCc1cc(C(=O)NC23CCC(NC(=O)COc4ccc(Cl)c(F)c4)(CC2)C(O)C3)on1 (centres unmarked) [Compound 515, N-{4-[2-(4-chloro-3-fluorophenoxy)acetamido]-3-hydroxybicyclo[2.2.2]octan-1-yl}-3-ethyl-1,2-oxazole-5-carboxamide]	< 50
Cc1nnc(C(=O)NC23CCC(NC(=O)COc4ccc(Cl)c(F)c4)(CC2)C(O)C3)o1 (centres unmarked) [Compound 516, N-{4-[2-(4-chloro-3-fluorophenoxy)acetamido]-3-hydroxybicyclo[2.2.2]octan-1-yl}-5-methyl-1,3,4-oxadiazole-2-carboxamide]	1000 to 2000
Cc1nn(C)c(C(=O)NC23CCC(NC(=O)COc4ccc(Cl)c(F)c4)(CC2)C(O)C3)c1F (centres unmarked) [Compound 517, N-{4-[2-(4-chloro-3-fluorophenoxy)acetamido]-3-hydroxybicyclo[2.2.2]octan-1-yl}-4-fluoro-1,3-dimethyl-1H-pyrazole-5-carboxamide]	50 to 250
COc1ccc(C(=O)NC23CC(NC(=O)COc4ccc(Cl)c(F)c4)(C2)C3)c(F)c1 [Compound 518, N-{3-[2-(4-chloro-3-fluorophenoxy)acetamido]bicyclo[1.1.1]pentan-1-yl}-2-fluoro-4-methoxybenzamide]	250 to 1000
COc1cccc(C(=O)NC23CC(NC(=O)COc4ccc(Cl)c(F)c4)(C2)C3)c1F [Compound 519, N-{3-[2-(4-chloro-3-fluorophenoxy)acetamido]bicyclo[1.1.1]pentan-1-yl}-2-fluoro-3-methoxybenzamide]	50 to 250
COc1ccc(F)c(C(=O)NC23CC(NC(=O)COc4ccc(Cl)c(F)c4)(C2)C3)c1 [Compound 520, N-{3-[2-(4-chloro-3-fluorophenoxy)acetamido]bicyclo[1.1.1]pentan-1-yl}-2-fluoro-5-methoxybenzamide]	250 to 1000
O=C(COc1ccc(Cl)c(Cl)c1)NC12CC(NC(=O)c3ccccc3)(C1)C2 [Compound 521, N-{3-[2-(3,4-dichlorophenoxy)acetamido]bicyclo[1.1.1]pentan-1-yl}benzamide]	50 to 250
O=C(COc1ccc(Cl)c(F)c1)NC12CCC(NC(=O)c3csc(C4CC4)n3)(CC1)CC2O (centres unmarked) [Compound 522, N-{4-[2-(4-chloro-3-fluorophenoxy)acetamido]-3-hydroxybicyclo[2.2.2]octan-1-yl}-2-cyclopropyl-1,3-thiazole-4-carboxamide]	50 to 250
COCc1nc(C(=O)NC23CCC(NC(=O)COc4ccc(Cl)c(F)c4)(CC2)C(O)C3)cs1 (centres unmarked) [Compound 523, N-{4-[2-(4-chloro-3-fluorophenoxy)acetamido]-3-hydroxybicyclo[2.2.2]octan-1-yl}-2-(methoxymethyl)-1,3-thiazole-4-carboxamide]	50 to 250
CC(O)c1ccnc(C(=O)NC23CC(NC(=O)COc4ccc(Cl)c(F)c4)(C2)C3)c1 (centres unmarked) [Compound 524, N-{3-[2-(4-chloro-3-fluorophenoxy)acetamido]bicyclo[1.1.1]pentan-1-yl}-4-(1-hydroxyethyl)pyridine-2-carboxamide]	250 to 1000
Cc1ccnc(C(=O)NC23CC(NC(=O)COc4ccc(Cl)c(F)c4)(C2)C3)c1 [Compound 525, N-{3-[2-(4-chloro-3-fluorophenoxy)acetamido]bicyclo[1.1.1]pentan-1-yl}-4-methylpyridine-2-carboxamide]	250 to 1000
Cc1ccnc(C(=O)NC23CC(NC(=O)COc4ccc(Cl)c(Cl)c4)(C2)C3)c1 [Compound 526, N-{3-[2-(3,4-dichlorophenoxy)acetamido]bicyclo[1.1.1]pentan-1-yl}-4-methylpyridine-2-carboxamide]	250 to 1000
COc1cc(F)ccc1C(=O)NC12CC(NC(=O)COc3ccc(Cl)c(F)c3)(C1)C2 [Compound 527, N-{3-[2-(4-chloro-3-fluorophenoxy)acetamido]bicyclo[1.1.1]pentan-1-yl}-4-fluoro-2-methoxybenzamide]	1000 to 2000
COc1cccc(F)c1C(=O)NC12CC(NC(=O)COc3ccc(Cl)c(F)c3)(C1)C2 [Compound 528, N-{3-[2-(4-chloro-3-fluorophenoxy)acetamido]bicyclo[1.1.1]pentan-1-yl}-2-fluoro-6-methoxybenzamide]	> 2000
COc1ccccc1C(=O)NC12CC(NC(=O)COc3ccc(Cl)c(F)c3)(C1)C2 [Compound 529, N-{3-[2-(4-chloro-3-fluorophenoxy)acetamido]bicyclo[1.1.1]pentan-1-yl}-2-methoxybenzamide]	> 2000
COc1ccc(C(=O)NC23CC(NC(=O)COc4ccc(Cl)c(F)c4)(C2)C3)cc1F [Compound 530, N-{3-[2-(4-chloro-3-fluorophenoxy)acetamido]bicyclo[1.1.1]pentan-1-yl}-3-fluoro-4-methoxybenzamide]	250 to 1000
COc1cc(C(=O)NC23CC(NC(=O)COc4ccc(Cl)c(F)c4)(C2)C3)ccc1F [Compound 531, N-{3-[2-(4-chloro-3-fluorophenoxy)acetamido]bicyclo[1.1.1]pentan-1-yl}-4-fluoro-3-methoxybenzamide]	1000 to 2000
CN(C)c1ccccc1C(=O)NC12CC(NC(=O)COc3ccc(Cl)c(F)c3)(C1)C2 [Compound 532, N-{3-[2-(4-chloro-3-fluorophenoxy)acetamido]bicyclo[1.1.1]pentan-1-yl}-2-(dimethylamino)benzamide]	> 2000
COc1ccc(C(=O)NC23CC(NC(=O)COc4ccc(Cl)c(F)c4)(C2)C3)cc1 [Compound 533, N-{3-[2-(4-chloro-3-fluorophenoxy)acetamido]bicyclo[1.1.1]pentan-1-yl}-4-methoxybenzamide]	50 to 250
CN(C)c1cccc(C(=O)NC23CC(NC(=O)COc4ccc(Cl)c(F)c4)(C2)C3)c1 [Compound 534, N-{3-[2-(4-chloro-3-fluorophenoxy)acetamido]bicyclo[1.1.1]pentan-1-yl}-3-(dimethylamino)benzamide]	250 to 1000
Cc1cccc(C(=O)NC23CC(NC(=O)COc4ccc(Cl)c(F)c4)(C2)C3)c1 [Compound 535, N-{3-[2-(4-chloro-3-fluorophenoxy)acetamido]bicyclo[1.1.1]pentan-1-yl}-3-methylbenzamide]	50 to 250
CN(C)c1ccc(C(=O)NC23CC(NC(=O)COc4ccc(Cl)c(F)c4)(C2)C3)cc1 [Compound 536, N-{3-[2-(4-chloro-3-fluorophenoxy)acetamido]bicyclo[1.1.1]pentan-1-yl}-4-(dimethylamino)benzamide]	250 to 1000
Cc1cc(C(=O)NC23CC(NC(=O)COc4ccc(Cl)c(F)c4)(C2)C3)c(C)o1 [Compound 537, N-{3-[2-(4-chloro-3-fluorophenoxy)acetamido]bicyclo[1.1.1]pentan-1-yl}-2,5-dimethylfuran-3-carboxamide]	250 to 1000
CCOc1ccccc1C(=O)NC12CC(NC(=O)COc3ccc(Cl)c(F)c3)(C1)C2 [Compound 538, N-{3-[2-(4-chloro-3-fluorophenoxy)acetamido]bicyclo[1.1.1]pentan-1-yl}-2-ethoxybenzamide]	< 50
Cc1nc(C(=O)NC23CC(NC(=O)COc4ccc(Cl)c(F)c4)(C2)C3)cs1 [Compound 539, N-{3-[2-(4-chloro-3-fluorophenoxy)acetamido]bicyclo[1.1.1]pentan-1-yl}-2-methyl-1,3-thiazole-4-carboxamide]	50 to 250
COc1ccc(F)cc1C(=O)NC12CC(NC(=O)COc3ccc(Cl)c(F)c3)(C1)C2 [Compound 540, N-{3-[2-(4-chloro-3-fluorophenoxy)acetamido]bicyclo[1.1.1]pentan-1-yl}-5-fluoro-2-methoxybenzamide]	250 to 1000
